These results are taken from EP4620959A1, “CYCLIC COMPOUNDS USED AS MULTI-TARGET KINASE INHIBITORS AND PREPARATION METHOD THEREFOR” (Shanghai Institute of Organic Chemistry, Chinese Academy of …, priority 2022, dated 2024).

For this assay, the target named is LRRK2 wt (Homo sapiens, UniProt Q5S007). Nature of the assay: Kinase activity inhibition assay (ADP-Glo), LRRK2 wt. The note with it: for inhibition at 0.1 µM: read-out: LRRK2 wt inhibition rate at 100 nM, ATP 20 µM, compound at 100 nM. In kind it is biochemical. How it is done: The kinase activity inhibition assay was performed by ICE Bioscience (Beijing) using ADP-Glo and HTRF methods.
Chain of LRRK2 wt (Q5S007 whole entry): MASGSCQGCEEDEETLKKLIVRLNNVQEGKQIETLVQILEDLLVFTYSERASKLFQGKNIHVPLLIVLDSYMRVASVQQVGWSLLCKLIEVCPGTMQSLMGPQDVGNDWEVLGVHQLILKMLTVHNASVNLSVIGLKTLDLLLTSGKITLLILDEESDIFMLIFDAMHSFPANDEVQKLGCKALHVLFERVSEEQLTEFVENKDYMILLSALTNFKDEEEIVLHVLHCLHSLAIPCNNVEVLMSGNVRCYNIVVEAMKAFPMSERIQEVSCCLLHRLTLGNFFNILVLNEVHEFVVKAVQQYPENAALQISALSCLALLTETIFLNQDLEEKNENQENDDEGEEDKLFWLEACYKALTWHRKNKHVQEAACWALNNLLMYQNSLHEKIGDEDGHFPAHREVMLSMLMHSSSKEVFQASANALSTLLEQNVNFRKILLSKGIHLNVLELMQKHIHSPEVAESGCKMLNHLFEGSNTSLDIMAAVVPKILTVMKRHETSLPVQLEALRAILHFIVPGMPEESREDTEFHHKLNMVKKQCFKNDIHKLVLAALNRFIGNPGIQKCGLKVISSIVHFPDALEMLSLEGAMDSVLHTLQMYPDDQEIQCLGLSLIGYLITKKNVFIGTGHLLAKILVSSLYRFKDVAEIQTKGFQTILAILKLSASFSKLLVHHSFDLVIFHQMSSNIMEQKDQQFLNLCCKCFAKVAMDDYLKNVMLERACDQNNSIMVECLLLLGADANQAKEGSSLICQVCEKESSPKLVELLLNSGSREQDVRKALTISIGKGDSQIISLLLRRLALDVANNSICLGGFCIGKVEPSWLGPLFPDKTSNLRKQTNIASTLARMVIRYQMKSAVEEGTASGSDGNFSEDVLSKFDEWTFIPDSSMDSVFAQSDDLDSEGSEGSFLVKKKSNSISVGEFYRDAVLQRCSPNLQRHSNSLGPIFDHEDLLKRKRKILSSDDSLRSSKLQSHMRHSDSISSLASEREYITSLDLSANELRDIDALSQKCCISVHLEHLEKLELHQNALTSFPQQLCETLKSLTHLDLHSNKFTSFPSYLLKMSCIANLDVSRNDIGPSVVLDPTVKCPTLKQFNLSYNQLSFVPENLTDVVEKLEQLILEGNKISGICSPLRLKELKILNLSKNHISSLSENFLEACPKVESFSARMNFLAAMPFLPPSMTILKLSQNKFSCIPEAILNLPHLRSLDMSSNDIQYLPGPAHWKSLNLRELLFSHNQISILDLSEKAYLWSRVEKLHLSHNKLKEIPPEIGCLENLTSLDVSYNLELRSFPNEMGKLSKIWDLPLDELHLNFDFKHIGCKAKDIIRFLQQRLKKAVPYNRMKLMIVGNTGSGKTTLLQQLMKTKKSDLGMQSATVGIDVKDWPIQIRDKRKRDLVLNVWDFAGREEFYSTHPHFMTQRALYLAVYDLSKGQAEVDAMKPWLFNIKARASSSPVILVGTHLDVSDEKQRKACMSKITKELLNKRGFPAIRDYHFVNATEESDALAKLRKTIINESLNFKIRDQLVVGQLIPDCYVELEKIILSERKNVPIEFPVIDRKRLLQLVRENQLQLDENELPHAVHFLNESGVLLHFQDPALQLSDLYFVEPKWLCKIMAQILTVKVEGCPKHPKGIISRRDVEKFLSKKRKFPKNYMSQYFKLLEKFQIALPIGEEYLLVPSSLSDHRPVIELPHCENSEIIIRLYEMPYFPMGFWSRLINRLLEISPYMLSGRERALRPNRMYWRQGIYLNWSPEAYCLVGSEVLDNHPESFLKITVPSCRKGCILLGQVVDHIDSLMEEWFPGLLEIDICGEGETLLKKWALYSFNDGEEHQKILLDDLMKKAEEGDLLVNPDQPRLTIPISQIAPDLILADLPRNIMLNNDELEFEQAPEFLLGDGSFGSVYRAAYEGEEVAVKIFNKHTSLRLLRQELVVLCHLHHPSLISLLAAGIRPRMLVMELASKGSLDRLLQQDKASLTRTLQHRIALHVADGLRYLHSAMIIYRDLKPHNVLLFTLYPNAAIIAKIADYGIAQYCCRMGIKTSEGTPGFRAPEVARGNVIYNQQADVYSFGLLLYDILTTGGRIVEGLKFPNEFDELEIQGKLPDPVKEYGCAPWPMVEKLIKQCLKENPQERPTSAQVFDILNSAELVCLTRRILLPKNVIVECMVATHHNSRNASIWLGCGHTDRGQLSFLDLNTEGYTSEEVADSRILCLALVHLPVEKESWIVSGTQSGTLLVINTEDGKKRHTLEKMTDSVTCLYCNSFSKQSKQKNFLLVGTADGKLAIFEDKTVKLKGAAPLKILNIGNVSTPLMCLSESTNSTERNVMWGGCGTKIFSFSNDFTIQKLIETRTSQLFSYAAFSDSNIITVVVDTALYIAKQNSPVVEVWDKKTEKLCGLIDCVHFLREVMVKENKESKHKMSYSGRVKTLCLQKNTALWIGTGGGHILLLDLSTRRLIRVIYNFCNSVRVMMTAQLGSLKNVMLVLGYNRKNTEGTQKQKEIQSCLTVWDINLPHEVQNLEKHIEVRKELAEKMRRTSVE
Table 1.1-1 ADP-Glo Buffer
Table 1.2-1 ADP-Glo Kinase and Substrate Formulation
SD is the standard error, and AVE is the average value. Table 2-1 LRRK2 Activity Inhibition Test Results
For orientation: ADP-Glo first removes unused ATP, then detects ADP through luciferase.

Usually inhibition stands for the relative decrease from the control value, in per cent.

`Cc1nn2cc1Nc1ncc(C(F)(F)F)c(n1)NCCCOCCNC(=O)C2(C)C` [Example T-2, (E)-3^3,4,4-Trimethyl-1^5-(trifluoromethyl)-3^1H-9-oxa-2,6,13-triaza-1(2,4)-pyrimidina-3(4,1)-pyrazolacyclotridecan-5-one]: the inhibition at 0.1 µM stood at 55%.

For `Cc1nn2cc1Nc1ncc3[nH]nc(c3n1)CCCNC(=O)C2(C)C` [Example T-9, (E)-3^3,4,4-Trimethyl-1^1H,3^1H-2,6-diaza-1(5,3)pyrazolo[4,3-d]pyrimidine-3(4,1)-pyrazolacyclononan-5-one], the inhibition at 0.1 µM was -0.5%.

As for `Cc1nn2cc1Nc1ncc(C(F)(F)F)c(n1)NCCCn1cc(nn1)C2(C)C` [Example T-16, (3^4E,5^4Z)-3^3,4,4-Trimethyl-1^5-(trifluoromethyl)-3^1H,5^1H-2,9-diaza-1(2,4)-pyrimidina-5(4,1)-triazole-3(4,1)-pyrazolacyclononane], the inhibition at 0.1 µM stood at 86.1%.

With `Cc1nn2cc1Nc1ncc(C(F)(F)F)c(n1)NCCCn1ncc(n1)C2(C)C` [Example T-17, (3^4E,5^3Z)-3^3,4,4-Trimethyl-1^5-(trifluoromethyl)-3^1H,5^2H-2,9-diaza-1(2,4)-pyrimidina-5(4,2)-triazole-3(4,1)-pyrazolacyclononane], the inhibition at 0.1 µM came out at 96.9%.

On to `Cc1nn2cc1Nc1ncc3[nH]cc(c3n1)CCCNC(=O)C2(C)C` [Example T-18, (E)-3^3,4,4-Trimethyl-1^5H,3^1H-2,6-diaza-1(2,7)-pyrrolo[3,2-d]pyrimidine-3(4,1)-pyrazolacyclononan-5-one], for which the inhibition at 0.1 µM worked out at 6.61%.

Regarding `Cc1nn2cc1Nc1ncc3c(n1)c(nn3C)CCCNC(=O)C2(C)C` [Example T-19, (E)-1^1,3^3,4,4-Tetramethyl-1^1H,3^1H-2,6-diaza-1(5,3)-pyrazolo[4,3-d]pyrimidine-3(4,1)-pyrazinacyclononan-5-one], the inhibition at 0.1 µM worked out at 11.6%.

For `Cc1nn2cc1Nc1ncc3nn(C)c(c3n1)CCCNC(=O)C2(C)C` [Example T-20, (1^3E,1^4Z,3^4E)-1^2,3^3,4,4-Tetramethyl-1^2H,3^1H-2,6-diaza-1(5,3)-pyrazolo[4,3-d]pyrimidine-3(4,1)-pyrazinacyclononan-5-one], the inhibition at 0.1 µM was 0.84%.

Turning to `Cc1nn2cc1Nc1ncc3c(n1)c(cn3C)CCCNC(=O)C2(C)C` [Example T-21, (E)-1^5,3^3,4,4-Tetramethyl-1^5H,3^1H-2,6-diaza-1(2,7)-pyrrolo[3,2-d]pyrimidine-3(4,1)-pyrazolacyclononan-5-one], the inhibition at 0.1 µM is 60.1%.

`Cc1nn2cc1Nc1ncc3c(Cl)cn(c3n1)CCCCNC(=O)C2(C)C` [Example T-22, (E)-1^5-Chloro-3^3,4,4-trimethyl-1^7H,3^1H-2,6-diaza-1(2,7)-pyrrolo[2,3-d]pyrimidine-3(4,1)-pyrazolacyclodecan-5-one]: the inhibition at 0.1 µM was determined as 92.5%.

Consider `Cc1nn2cc1Nc1ncc3c(Cl)cn(c3n1)CCCCN(C)C(=O)C2(C)C` [Example T-23, (E)-1^5-Chloro-3^3,4,4,6-tetramethyl-1^7H,3^1H-2,6-diaza-1(2,7)-pyrrolo[2,3-d]pyrimidine-3(4,1)-pyrazolacyclodecan-5-one], for which the inhibition at 0.1 µM came out at 19.1%.

For `Cc1nn2cc1Nc1ncc3ccc(n3n1)CCCNC(=O)C2(C)C` [Example T-24, (1^1Z,3^4E)-3^3,4,4-Trimethyl-3^1H-2,6-diaza-1(2,7)-pyrrolo[2,1-f][1,2,4]triazine-3(4,1)-pyrazolacyclononan-5-one], the inhibition at 0.1 µM came out at 57.3%.

As for `Cc1nn2cc1Nc1ncc3c(Cl)cc(n3n1)CCCCNC(=O)C2(C)C` [Example T-26, (1^1Z,3^4E)-1^5-Chloro-3^3,4,4-trimethyl-3^1H-2,6-diaza-1(2,7)-pyrrolo[2,1-f][1,2,4]triazine-3(4,1)-pyrazolacyclodecan-5-one], the inhibition at 0.1 µM was 98.4%.

With `CC1(C)C(=O)NCCCc2cc(Cl)c3cnc(nn23)Nc2cn1nc2Cl` [Example T-27, (1^1Z,3^4E)-1^53^3-Dichloro-4,4-dimethyl-3^1H-2,6-diaza-1(2,7)-pyrrolo[2,1-f][1,2,4]triazine-3(4,1)-pyrazolacyclononan-5-one], the inhibition at 0.1 µM stood at 88%.

Turning to `CC1(C)C(=O)NCCCc2cc(Cl)c3cnc(nn23)Nc2cn1nc2C1CC1` [Example T-28, (1^1Z,3^4E)-1^5-Chloro-3^3-cyclopropyl-4,4-dimethyl-3^1H-2,6-diaza-1(2,7)-pyrrolo[2,1-f][1,2,4]triazine-3(4,1)-pyrazolacyclononan-5-one], the inhibition at 0.1 µM is 98.3%.

`Cc1nn2cc1Nc1ncc3c(C(F)(F)F)cc(n3n1)CCCNC(=O)C2(C)C` [Example T-29, (1^1Z,3^4E)-3^3,4,4-Trimethyl-1^5-(trifluoromethyl)-3^1H-2,6-diaza-1(2,7)-pyrrolo[2,1-f][1,2,4]triazine-3(4,1)-pyrazolacyclononan-5-one]: the inhibition at 0.1 µM was determined as 95.6%.

Regarding `Cc1nn2cc1Nc1ncc3c(C#N)cc(n3n1)CCCNC(=O)C2(C)C` [Example T-30, (1^1Z,3^4E)-3^3,4,4-Trimethyl-5-oxo-3^1H-2,6-diaza-1(2,7)-pyrrolo[2,1-f][1,2,4]triazine-3(4,1)-pyrazolacyclononan-1^5-carbonitrile], the inhibition at 0.1 µM stood at 61.3%.

`Cc1nn2cc1Nc1ncc(C(F)(F)F)c(n1)N(C)CCCN(C)C(=O)C2(C)C` [Example T-31, (E)-3^3,4,4,6,10-Pentamethyl-1^5-(trifluoromethyl)-3^1H-2,6,10-triaza-1(2,4)-pyrimidina--3(4,1)-pyrazolacyclodecan-5-one]: the inhibition at 0.1 µM came out at 8.85%.

On to `Cc1nn2cc1Nc1ncc(C(F)(F)F)c(n1)N(C)CCCNC(=O)C2(C)C` [Example T-32, (E)-3^3,4,4,10-Tetramethyl-1^5-(trifluoromethyl)-3^1H-2,6,10-triaza-1(2,4)-pyrimidina-3(4,1)-pyrazolacyclodecan-5-one], for which the inhibition at 0.1 µM is 91.6%.

Turning to `Cc1nn2cc1Nc1ncc(C(F)(F)F)c(n1)NCCCN(C)C(=O)C2(C)C` [Example T-33, (E)-3^3,4,4,6-Tetramethyl-1^5-(trifluoromethyl)-3^1H-2,6,10-triaza-1(2,4)-pyrimidina-3(4,1)-pyrazolacyclodecan-5-one], the inhibition at 0.1 µM turned out to be 2.45%.

Consider `Cc1nn2cc1Nc1ncc(C(F)(F)F)c(n1)NCCCN(C)CC2(C)C` [Example T-34, (E)-3^3,4,4,6-Tetramethyl-1^5-(trifluoromethyl)-3^1H-2,6,10-triaza-1(2,4)-pyrimidina-3(4,1)-pyrazolacyclodecane], for which the inhibition at 0.1 µM is -12.7%.

In the case of `Cc1nn2cc1Nc1ncc(C(F)(F)F)c(n1)NCCn1cc(nn1)CC2(C)C` [Example T-35, (3^4E,6^4Z)-3^3,4,4-Trimethyl-1^5-(trifluoromethyl)-3^1H,6^1H-2,9-diaza-1(2,4)-pyrimidina-6(4,1)-triazole-3(4,1)-pyrazolacyclononane], the inhibition at 0.1 µM was 9.41%.

As for `Cc1nn2cc1Nc1ncc(C(F)(F)F)c(n1)NCCn1ncc(n1)CC2(C)C` [Example T-36, (3^4E,6^3Z)-3^3,4,4-Trimethyl-1^5-(trifluoromethyl)-3^1H,6^2H-2,9-diaza-1(2,4)-pyrimidina-6(4,2)-triazole-3(4,1)-pyrazolacyclononane], the inhibition at 0.1 µM was 28.9%.

Turning to `Cc1nn2cc1Nc1ncc(C(F)(F)F)c(n1)NCCCOC(=O)C2(C)C` [Example T-37, (E)-3^3,4,4-Trimethyl-1^5-(trifluoromethyl)-3^1H-6-oxa-2,10-diaza-1(2,4)-pyrimidina-3(4,1)-pyrazolacyclodecan-5-one], the inhibition at 0.1 µM was 83.4%.

In the case of `Cc1nn2cc1Nc1ncc(C(F)(F)F)c(n1)NCCC(C)NC(=O)C2(C)C` (stereo not drawn) [Example T-38, (E)-3^3,4,4,7-Tetramethyl-1^5-(trifluoromethyl)-3^1H-2,6,10-triaza-1(2,4)-pyrimidina-3(4,1)-pyrazolacyclodecan-5-one], the inhibition at 0.1 µM was found to be 37.7%.

Consider `Cc1nn2cc1Nc1ncc(C(F)(F)F)c(n1)NCCC(C)(C)NC(=O)C2(C)C` [Example T-39, (E)-3^3,4,4,7,7-Pentamethyl-1^5-(trifluoromethyl)-3^1H-2,6,10-triaza-1(2,4)-pyrimidina-3(4,1)-pyrazolacyclodecan-5-one], for which the inhibition at 0.1 µM was determined as 28.9%.

Regarding `Cc1nn2cc1Nc1ncc(C(F)(F)F)c(n1)NC/C=C/CNC(=O)C2(C)C` [Example T-40, (3^4E,8E)-3^3,4,4-Trimethyl-1^5-(trifluoromethyl)-3^1H-2,6,11-triaza-1(2,4)-pyrimidina-3(4,1)-pyrazolylundecapentaene-5-one], the inhibition at 0.1 µM was found to be 56.1%.

Turning to `Cc1nn2cc1Nc1ncc(C(F)(F)F)c(n1)N[C@H]1CC[C@H](CC1)NC(=O)C2(C)C` [Example T-41, (5^1s,5^4s,E)-1^3,8,8-Trimethyl-3^5-(trifluoromethyl)-1^1H-2,4,6-triaza-3(2,4)-pyrimidina-1(4,1)-pyrazola-5(1,4)-cyclohexacyclooctan-7-one], the inhibition at 0.1 µM was 20.8%.

As to `Cc1nn2cc1Nc1ncc(C(F)(F)F)c(n1)NC1CCCC(C1)NC(=O)C2(C)C` (stereo not drawn) [Example T-42, (5^3R,E)-1^3,8,8-Trimethyl-3^5-(trifluoromethyl)-1^1H-2,4,6-triaza-3(2,4)-pyrimidina-1(4,1)-pyrazola-5(1,3)-cyclohexacyclooctan-7-one], the “LRRK2 wt inhibition rate at 100 nM” value (ATP 20 µM, compound at 100 nM) stood at 42.08%@100 nM.

Consider `Cc1nn2cc1Nc1ncc(C(F)(F)F)c(n1)NCC(F)(F)COC(=O)C2(C)C` [Example T-43, (E)-8,8-Difluoro-3^3,4,4-trimethyl-1^5-(trifluoromethyl)-3^1H-6-oxa-2,10-diaza-1(2,4)-pyrimidina-3(4,1)-pyrazolacyclodecan-5-one], for which the inhibition at 0.1 µM came out at 64.6%.

On to `Cc1nn2cc1Nc1ncc(C(F)(F)F)c(n1)NCC1(CC1)CNC(=O)C2(C)C` [Example T-44, (E)-3',4',4'-Trimethyl-5'-(trifluoromethyl)spiro[cyclopropane-8'-2,6,10-triaza-1(2,4)-pyrimidina-3(4,1)-pyrazolacyclodecan]-5'-one], for which the inhibition at 0.1 µM worked out at 56.8%.
